Experiments:
[1] = target: T1, VEGF-R (rat VEGF-R2 kinase domain) (Rattus norvegicus, UniProt O08775); assay: VEGF-R Screening Assay; format: biochemical
T1 construct: 6xHis (polyhistidine) (N)
Experimental: A kinase reaction mixture was prepared containing 50 mM Tris-HCl pH=8, 10 mM MgCl2, 0.1 mM Na3PO4, 1 mM DTT, 10 μM ATP, 0.025 μM biotinylated peptide substrate (also referred to herein as PLC-1 biotinylated peptide substrate and PDGF receptor substrate, sequence provided in the peptide substrate table) and 0.8 μCuries per well ^33P-γ-ATP (2000–3000 Ci/mmol). 70 μL of the kinase reaction mixture was dispensed into the well of a streptavidin coated FlashPlate™ (Cat. # SMP103, NEN, Boston, Mass.). Then 1 μL of test compound stock in 100% DMSO was added to the wells resulting in a final concentration of 1% DMSO in the reaction with a 100 μL final reaction volume. Next, soluble rat VEGF tyrosine kinase containing an N-terminal 6XHIS tag was diluted in 50 mM Tris-HCl pH=8.0, 0.1% BSA at a concentration of 5 ng per μL and 30 μL (150 ng enzyme per test well) was added to each well to initiate the reaction. The reaction was incubated for one hour at 30° C. At the end of the 1-hour incubation, the reaction was terminated by aspirating the reaction mixture from the plate and washing the wells twice with PBS containing 100 mM EDTA. The PLC1 biotinylated peptide substrate became immobilized on the Flashplate™ and the incorporation of ^33P-γ-ATP was measured by reading the plate on a scintillation counter. Inhibition of the enzymatic activity of the VEGF-R was measured by observing a reduced amount of ^33P-γ-ATP incorporated into the immobilized peptide.
(§1) Assays to test compound inhibition of other kinases were preformed using methods that measure the amount of phosphorylation of a biotinylated peptide substrate. Biotinylated peptide substrates were selected from the literature as appropriate for the enzyme being evaluated. The general procedure used to assay for kinase activity is as follows: a kinase reaction mix was prepared in 50 mM Tris-HCl pH=8, 10 mM MgCl2, 0.1 mM Na3VO4, 1 mM DTT, 10 μM ATP, 0.25–1 μM biotinylated peptide substrate, 0.2–0.8 μCuries per well ^33P-γ-ATP (2000–3000 Ci/mmol). Assay conditions vary slightly for each protein kinase, for example, insulin receptor kinase requires 10 mM MnCl2 for activity and Calmodulin-dependent protein kinase requires calmodulin and 2 mM CaCl2. The reaction mixture was dispensed into the wells of a streptavidin coated Flashplate and 1 μL test compound in 100% DMSO was added to a 100 μL reaction volume resulting in a final concentration of 1% DMSO in the reaction. Enzyme was diluted in 50 mM Tris-HCl pH=8.0, 0.1% BSA and added to each well. The reaction was incubated for one hour at 30° C. in the presence of a test compound. After one hour the reaction mix was aspirated from the plate and the plate was washed with PBS containing 100 mM EDTA. The plate was read on a scintillation counter to determine ^33P-γ-ATP incorporated into the immobilized peptide substrate. Test compounds were assayed in duplicate at 8 concentrations (100 μM, 10 μM, 1 μM, 100 nM, 10 nM, 1 nM, 100 pM, 10 pM). A maximum and minimum signal for the assay was determined on each plate. […] Known inhibitor compounds appropriate for the kinase being assayed were also included on each plate.
(§2) The form of VEGF-R (vascular endothelial growth factor receptor-2) used was a fusion protein containing a polyhistidine tag at the N-terminus followed by amino acids 786–1343 of the rat VEGF-R2 kinase domain (GenBank Accession #U93306). The form of CDK1 (cyclin dependent kinase 1) used was isolated from insect cells expressing both the human CDK1 catalytic subunit and its positive regulatory subunit cyclin B (CDK1:cyclin B protein, New England Biolabs, Beverly, Mass., Cat. #6020). The form of CDK4 (cyclin dependent kinase 4) used contains amino acids 769 to 921 of the mouse […] protein found in the GST-retinoblastoma protein construct (Santa Cruz Biotechnology, Santa Cruz, Calif.; Cat. #SC-4112). The form of EGF-R1 (epidermal growth factor receptor 1) used was purified from human A431 cell membranes (Sigma, St. Louis, Mo., Cat.# E3641). […]

CDK1:Cyclin-B = target: T2, CDK1:Cyclin-B (Homo sapiens, UniProt P06493); assay: CDK1 Screening Assay; format: biochemical
T2 construct: purchased New England Biolabs 6020; host or cells: insect cells
Experimental: A kinase reaction mixture was prepared containing 50 mM Tris-HCl pH=8, 10 mM MgCl2, 0.1 mM Na3PO4, 1 mM DTT, 10 μM ATP, 0.025 μM biotinylated histone-H1 peptide substrate (also referred to herein as a CDK-1 peptide substrate, see substrate table) and 0.2 μCuries per well ^33P-γ-ATP (2000–3000 Ci/mmol). 70 μL of the kinase reaction mixture was dispensed into the well of a streptavidin coated FlashPlate™ (Cat. # SMP 103, NEN, Boston, Mass.). Then 1 μL of test compound stock in 100% DMSO was added to the wells resulting in a final concentration of 1% DMSO in the reaction with a 100 μl final reaction volume. Next, CDK1:Cyclin-B protein (New England Biolads, infra) was diluted in 50 mM Tris-HCl pH=8.0, 0.1% BSA at a concentration of 1 ng per μL and 30 μl (30 ng enzyme per test well) was added to each well to initiate the reaction. The reaction was incubated for one hour at 30° C. At the end of the 1-hour incubation, the reaction was terminated by aspirating the reaction mixture from the plate and washing the wells twice with PBS containing 100 mM EDTA. The histone-H1 biotinylated peptide substrate became immobilized on the Flashplate™ (Perkin Elmer, NEN Boston, Mass.) and the incorporation of ^33P-γ-ATP was measured by reading the plate on a scintillation counter. Inhibition of the enzymatic activity of CDK1 was measured by observing a reduced amount of ^33P-γ-ATP incorporated into the immobilized peptide.
as §1, §2

T1 sequence (O08775 786-1343): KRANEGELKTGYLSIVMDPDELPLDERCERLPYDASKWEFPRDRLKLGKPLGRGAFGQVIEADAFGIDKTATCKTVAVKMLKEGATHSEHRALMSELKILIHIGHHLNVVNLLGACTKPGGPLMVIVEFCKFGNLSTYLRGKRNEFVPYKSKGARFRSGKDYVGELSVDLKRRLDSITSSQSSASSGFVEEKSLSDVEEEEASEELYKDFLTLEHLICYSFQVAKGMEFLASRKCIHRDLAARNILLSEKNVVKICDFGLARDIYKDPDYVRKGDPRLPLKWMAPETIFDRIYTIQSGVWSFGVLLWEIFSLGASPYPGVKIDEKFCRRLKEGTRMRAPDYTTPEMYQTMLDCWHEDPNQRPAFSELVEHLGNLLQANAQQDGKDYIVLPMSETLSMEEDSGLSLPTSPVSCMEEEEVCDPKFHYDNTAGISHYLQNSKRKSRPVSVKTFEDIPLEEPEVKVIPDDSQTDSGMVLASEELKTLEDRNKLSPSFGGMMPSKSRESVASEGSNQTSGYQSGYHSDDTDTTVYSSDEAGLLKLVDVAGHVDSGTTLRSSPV
T2 sequence (P06493 whole entry): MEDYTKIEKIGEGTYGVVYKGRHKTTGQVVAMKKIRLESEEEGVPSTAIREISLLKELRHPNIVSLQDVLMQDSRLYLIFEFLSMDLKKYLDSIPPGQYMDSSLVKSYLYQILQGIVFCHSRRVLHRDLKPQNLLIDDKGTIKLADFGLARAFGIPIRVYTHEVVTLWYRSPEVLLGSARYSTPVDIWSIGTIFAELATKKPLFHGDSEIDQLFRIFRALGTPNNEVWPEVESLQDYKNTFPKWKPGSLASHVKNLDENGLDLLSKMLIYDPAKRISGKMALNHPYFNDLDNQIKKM
T2 sequence (P14635 whole entry partner): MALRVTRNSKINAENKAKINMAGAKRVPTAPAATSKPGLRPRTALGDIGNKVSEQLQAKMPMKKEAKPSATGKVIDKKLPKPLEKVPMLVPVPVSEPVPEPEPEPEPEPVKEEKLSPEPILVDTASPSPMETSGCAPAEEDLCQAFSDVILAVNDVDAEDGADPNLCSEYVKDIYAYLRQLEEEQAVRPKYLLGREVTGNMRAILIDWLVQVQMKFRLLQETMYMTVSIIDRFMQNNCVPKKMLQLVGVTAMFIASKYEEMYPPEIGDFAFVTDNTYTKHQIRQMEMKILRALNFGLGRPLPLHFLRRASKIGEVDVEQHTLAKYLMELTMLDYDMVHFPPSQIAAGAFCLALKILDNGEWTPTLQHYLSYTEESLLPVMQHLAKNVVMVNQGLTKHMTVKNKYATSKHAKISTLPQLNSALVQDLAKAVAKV

Row | IC50 [1] | IC50 (CDK1:Cyclin-B) | Structure (SMILES)
1 | 12900 nM | 971 nM | OCCCNc1cncc(-c2ncnc(Nc3cccc(Cl)c3)n2)n1 [Compound 3, 3-((6-(4-((3-chlorophenyl)amino)-1,3,5-triazin-2-yl)pyrazin-2-yl)amino)-1-propanol]
2 | ≥ 10000 nM | 382 nM | OCCCNc1cncc(-c2ncnc(Nc3ccc4c(c3)OCCO4)n2)c1 [Compound 5, 3-((5-(4-((2,3-dihydro-1,4-benzodioxin-6-yl)amino)-1,3,5-triazin-2-yl)-3-pyridinyl)amino)-1-propanol]
3 | 865 nM | 766 nM | Nc1nc(Nc2cccc(Cl)c2)nc(-c2ccnc(NCCCO)c2)n1 [Compound 4, 3-((4-(4-amino-6-((3-chlorophenyl)amino)-1,3,5-triazin-2-yl)-2-pyridinyl)amino)-1-propanol]
4 | 5030 nM | 1240 nM | OCCCNc1cncc(-c2ncnc(Nc3ccc(N4CCOCC4)cc3)n2)c1 [Compound 6, 3-((5-(4-((4-(4-morpholinyl)phenyl)amino)-1,3,5-triazin-2-yl)-3-pyridinyl)amino)-1-propanol]

From US7205298B2, “Substituted triazine kinase inhibitors” (Janssen Pharmaceutica N.V., priority 2002, dated 2007)
